Converted amounts (≈) assume the structure as drawn. Where two headings read alike, the source gives them in different places.
What was measured:
[1] = tested on: Micrococcus flavus; conditions: M. flavus; 0.15 nmol per well; 30°C overnight
Protocol: Agar well diffusion assay against Micrococcus flavus was performed as described previously ([van Heel et al., 2013]). 0.15 nmol of each sample was added to each well. The agar plate was incubated at 30°C overnight, after which the zone of inhibition was measured.
(§1) M. flavus was used as the indicator strain for the agar well diffusion assay, and 0.15 nmol of each sample was added to each well (Figure 3). […] Antimicrobial activity of all compounds was tested by growth inhibition assays against two clinically relevant Gram-positive pathogens, i.e., methicillin resistant S. aureus and vancomycin resistant E. faecium, as well as L. monocytogenes, and L. lactis. […] For this experiment, an activity test was performed against the NSR producing strain L. lactis NZ9000 (pNSR).

[2] = tested on: L. lactis NZ9000 (pEmpty); conditions: for MIC value, L. lactis NZ9000 (pEmpty): broth microdilution (Wiegand et al. 2008), samples in 0.05% acetic acid, strain with empty plasmid
Protocol: (§2) All samples were resuspended in 0.05% aqueous acetic acid solution and the peptide amount was quantified by HPLC according to Schmitt et al. ([Schmitt et al., 2019]). The indicator strains MW2-MRSA, Enterococcus faecium, Listeria monocytogenes, and Lactococcus lactis were first streaked on GM17 plate and cultured overnight. The peptide samples were diluted with 0.05% acetic acid to a concentration of 40–320 μM (depending on the estimated activity of the peptide and the strain tested). The MIC value test was performed according to [Wiegand et al. (2008)].
as §1

[3] = tested on: Enterococcus faecium LMG 16003 (vancomycin resistant, VRE)
Protocol: as §2, §1

[4] = tested on: Listeria monocytogenes LMG 10470
Protocol: as §2, §1

[5] = tested on: MW2-MRSA (Staphylococcus aureus MW2, methicillin resistant)
Protocol: as §2, §1

[6] = tested on: L. lactis NZ9000 (pNSR); conditions: for MIC against NZ9000 with vs without NSR production: L. lactis NZ9000 (pNSR) vs NZ9000 (pEmpty); for MIC value, L. lactis NZ9000 (pNSR): broth microdilution (Wiegand et al. 2008), strain expressing nisin resistance protein NSR
Protocol: as §2, §1

[7] = MW2- ( MW2, methicillin resistant)
[8] = broth microdilution (Wiegand et al. 2008), samples in 0.05% acetic acid, quantified by HPLC
[9] = ratio of MICs vs nisin ABC + O6

Structure (SMILES)	Antimicrobial activity (zone of inhibition) in agar well diffusion assay [1]	MIC value, L. lactis NZ9000 (pEmpty) [2] [μM]	MIC value, E. faecium ([3]; LMG 16003) [µM]	MIC value, L. monocytogenes ([4]; LMG 10470) [µM]	MIC value, MW2-MRSA [5, 7] [µM]	MIC value, E. faecium [3, 8] [µM]	Decrease of antimicrobial activity compared to full nisin, E. faecium ([3]; ratio of MICs vs nisin) [fold]	Increase of antimicrobial activity compared to nisin ABC, E. faecium ([3]; ratio of MICs vs nisin ABC) [fold]	Increase of antimicrobial activity compared to nisin ABC + O6, E. faecium [3, 9]	Increase of antimicrobial activity compared to nisin ABC, L. lactis ([2]; ratio of MICs vs nisin ABC) [fold]	Increase of antimicrobial activity compared to nisin ABC + O6, L. lactis [2, 9]	MIC against NZ9000 with vs without NSR production [6]	MIC value, L. lactis NZ9000 (pNSR) [6] [μM]	MIC value, L. monocytogenes [4, 8] [µM]	Decrease of antimicrobial activity compared to full nisin, L. monocytogenes ([4]; ratio of MICs vs nisin) [fold]	Increase of antimicrobial activity compared to nisin ABC, L. monocytogenes ([4]; ratio of MICs vs nisin ABC) [fold]	Increase of antimicrobial activity compared to nisin ABC + O6, L. monocytogenes [4, 9]	MIC value, MW2-MRSA [5, 8] [µM]
C=C1NC(=O)[C@H]([C@@H](C)CC)NC(=O)[C@H](NC(=O)/C(=C/C)NC(=O)[C@@H](N)[C@@H](C)CC)CSC[C@@H](C(=O)N[C@H]2C(=O)N3CCC[C@H]3C(=O)NCC(=O)N[C@H](C(=O)N[C@@H](CCCCN)C(=O)NCCCn3cc(CCC(=O)N4[C@H](C(=O)N5[C@H](C(=O)N6[C@H](C(=O)N7[C@H](C(=O)N8[C@H](C(=O)N9[C@H](C(=O)N[C@@H](CCCCN)C(=O)N[C@@H](CCCCN)C(=O)N[C@@H](CCCCN)C(=O)O)C[C@@H]%10CCCC[C@@H]%109)C[C@@H]9CCCC[C@@H]98)C[C@@H]8CCCC[C@@H]87)C[C@@H]7CCCC[C@@H]76)C[C@@H]6CCCC[C@@H]65)C[C@@H]5CCCC[C@@H]54)nn3)CS[C@H]2C)NC(=O)[C@H](CC(C)C)NC1=O [Nisin AB + O6K3]	the only active one	10	–	–	–	–	–	–	–	–	–	–	–	–	–	–	–	–
C=C1NC(=O)[C@H]([C@@H](C)CC)NC(=O)[C@H](NC(=O)/C(=C/C)NC(=O)[C@@H](N)[C@@H](C)CC)CSC[C@@H](C(=O)N[C@H]2C(=O)N3CCC[C@H]3C(=O)NCC(=O)N[C@H](C(=O)N[C@@H](CCCCN)C(=O)O)CS[C@H]2C)NC(=O)[C@H](CC(C)C)NC1=O [Nisin AB, reference compound]	not active alone	>40	160 (≈ 184 µg/mL)	>320	>320	–	–	–	–	–	–	–	–	–	–	–	–	–
C=C1NC(=O)[C@H]([C@@H](C)CC)NC(=O)[C@H](NC(=O)/C(=C/C)NC(=O)[C@@H](N)[C@@H](C)CC)CSC[C@@H](C(=O)N[C@H]2C(=O)N3CCC[C@H]3C(=O)NCC(=O)N[C@H](C(=O)N[C@@H](CCCCN)C(=O)N[C@H]3C(=O)NCC(=O)N[C@@H](C)C(=O)N[C@@H](CC(C)C)C(=O)N[C@@H](CCSC)C(=O)NCC(=O)N[C@H](C(=O)N[C@@H](CC(N)=O)C(=O)NCCCn4cc(CCC(=O)N5[C@H](C(=O)N6[C@H](C(=O)N7[C@H](C(=O)N[C@@H](CCCCN)C(=O)N[C@@H](CCCCN)C(=O)N[C@@H](CCCCN)C(=O)O)C[C@@H]8CCCC[C@@H]87)C[C@@H]7CCCC[C@@H]76)C[C@@H]6CCCC[C@@H]65)nn4)CS[C@H]3C)CS[C@H]2C)NC(=O)[C@H](CC(C)C)NC1=O [Nisin ABC + O3K3]	considerably higher than that of nisin ABC	2.5	40	80	80	–	–	–	–	–	–	–	–	–	–	–	–	–
C=C1NC(=O)[C@H]([C@@H](C)CC)NC(=O)[C@H](NC(=O)/C(=C/C)NC(=O)[C@@H](N)[C@@H](C)CC)CSC[C@@H](C(=O)N[C@H]2C(=O)N3CCC[C@H]3C(=O)NCC(=O)N[C@H](C(=O)N[C@@H](CCCCN)C(=O)N[C@H]3C(=O)NCC(=O)N[C@@H](C)C(=O)N[C@@H](CC(C)C)C(=O)N[C@@H](CCSC)C(=O)NCC(=O)N[C@H](C(=O)N[C@@H](CC(N)=O)C(=O)NCCCn4cc(CCC(=O)N5[C@H](C(=O)N6[C@H](C(=O)N7[C@H](C(=O)N8[C@H](C(=O)N9[C@H](C(=O)N%10[C@H](C(=O)N[C@@H](CCCCN)C(=O)N[C@@H](CCCCN)C(=O)N[C@@H](CCCCN)C(=O)O)C[C@@H]%11CCCC[C@@H]%11%10)C[C@@H]%10CCCC[C@@H]%109)C[C@@H]9CCCC[C@@H]98)C[C@@H]8CCCC[C@@H]87)C[C@@H]7CCCC[C@@H]76)C[C@@H]6CCCC[C@@H]65)nn4)CS[C@H]3C)CS[C@H]2C)NC(=O)[C@H](CC(C)C)NC1=O [Nisin ABC + O6K3]	–	2.5	–	–	–	2.5	8	16	twice	2	twice	identical MICs	2.5	10	4	4	twice	80
C=C1NC(=O)[C@H]([C@@H](C)CC)NC(=O)[C@H](NC(=O)/C(=C/C)NC(=O)[C@@H](N)[C@@H](C)CC)CSC[C@@H](C(=O)N[C@H]2C(=O)N3CCC[C@H]3C(=O)NCC(=O)N[C@H](C(=O)N[C@@H](CCCCN)C(=O)N[C@H]3C(=O)NCC(=O)N[C@@H](C)C(=O)N[C@@H](CC(C)C)C(=O)N[C@@H](CCSC)C(=O)NCC(=O)N[C@H](C(=O)N[C@@H](CC(N)=O)C(=O)NCCCn4cc(CCC(=O)N5[C@H](C(=O)N6[C@H](C(=O)N7[C@H](C(=O)N8[C@H](C(=O)N9[C@H](C(=O)N%10[C@H](C(=O)O)C[C@@H]%11CCCC[C@@H]%11%10)C[C@@H]%10CCCC[C@@H]%109)C[C@@H]9CCCC[C@@H]98)C[C@@H]8CCCC[C@@H]87)C[C@@H]7CCCC[C@@H]76)C[C@@H]6CCCC[C@@H]65)nn4)CS[C@H]3C)CS[C@H]2C)NC(=O)[C@H](CC(C)C)NC1=O [Nisin ABC + O6]	–	5.0	5	20	80	–	–	–	–	–	–	identical MICs	5.0	–	–	–	–	–
